The record followed here is patent US5324725A, “7-fused 2-(piperazinoalkyl) indole derivatives, intermediates and compositions thereof” (Kali-Chemie Pharma GmbH, priority 1991, dated 1994).

Assay [1] addresses T1, cyclooxygenase (Mus musculus, UniProt P22437).
T1 construct: A cell suspension containing peritoneal cells of male mice 8-10 weeks old was obtained; endogenous in cells; host or cells: mouse peritoneal macrophages (male mice 8-10 weeks old), zymosan-stimulated
T1 sequence (P22437 27-602): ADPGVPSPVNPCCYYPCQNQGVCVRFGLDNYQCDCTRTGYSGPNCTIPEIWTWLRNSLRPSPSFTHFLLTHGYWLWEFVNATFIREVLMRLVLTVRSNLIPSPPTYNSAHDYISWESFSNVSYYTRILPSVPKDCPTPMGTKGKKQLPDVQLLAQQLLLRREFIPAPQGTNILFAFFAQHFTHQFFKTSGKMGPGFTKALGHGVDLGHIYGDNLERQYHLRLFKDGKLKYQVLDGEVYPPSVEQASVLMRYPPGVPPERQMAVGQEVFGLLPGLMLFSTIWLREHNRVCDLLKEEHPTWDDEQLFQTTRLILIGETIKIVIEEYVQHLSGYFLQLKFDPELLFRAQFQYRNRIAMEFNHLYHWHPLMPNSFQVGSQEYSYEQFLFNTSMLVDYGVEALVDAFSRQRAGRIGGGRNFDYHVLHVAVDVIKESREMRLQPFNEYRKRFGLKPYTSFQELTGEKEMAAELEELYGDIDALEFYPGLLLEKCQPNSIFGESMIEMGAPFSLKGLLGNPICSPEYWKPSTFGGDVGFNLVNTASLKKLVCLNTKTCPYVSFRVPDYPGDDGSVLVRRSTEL
The assay is described as follows: Cyclooxygenase inhibition: release of 6-keto-PGF1 α from zymosan-stimulated mouse peritoneal macrophage cells. The settings on record: 10^-5 mol/l, read-out: In vitro % inhibition effect on the release of 6-keto-PGF1 α. Format: cell-based. An outline of the steps: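 Adherent peritoneal macrophages from 8–10-week male mice were preincubated 15 min with compound at 10^-5 M (1% dimethylformamide vehicle) in HBSS/10 mM Hepes, then stimulated with zymosan […] for 2 h. LTC4 and 6-keto-PGF1 α in supernatants were quantified by EIA, giving % inhibition versus zymosan controls.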

The target in assay [2] is T2, histamine (H1) receptor (Cavia porcellus, UniProt P31389).
T2 construct: isolated smooth muscle of the guinea-pig ileum; from tissue; host or cells: isolated ileum segments of Dunkin Hartley guinea-pigs
The assay is described as follows: Antihistamine (H1) effect: inhibition of histamine-induced contractions of isolated guinea-pig ileum in vitro. Format: cell-based, guinea-pig (Dunkin Hartley). The settings on record: histamine 5 × 10^-6 mol/l, test substance 10^-6 mol/l. An outline of the steps:
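Dunkin Hartley guinea-pig ileum segments (300-500 g animals) in Krebs-Henseleit, pH 7.4, 5% CO2/95% O2, 1 g tension, isotonic recording. Compound at 10^-6 mol/l for 30 s before histamine 5×10^-6 mol/l; contraction measured over 30 s, repeated 10 min after washout, expressed as % inhibition.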

The mark [3] stands for this setting: after 30 sec., read-out: in vitro (H1) receptor antagonism % inhibitory effect on histamine-induced contractions of the Ileum, after 30 sec.
Where [4] appears, read: after 10 min. (after washing), read-out: in vitro (H1) receptor antagonism % inhibitory effect on histamine-induced contractions of the Ileum, after 10 min.

Like-named read-outs stand apart in the source and are kept apart here.

T2 sequence (P31389 whole entry): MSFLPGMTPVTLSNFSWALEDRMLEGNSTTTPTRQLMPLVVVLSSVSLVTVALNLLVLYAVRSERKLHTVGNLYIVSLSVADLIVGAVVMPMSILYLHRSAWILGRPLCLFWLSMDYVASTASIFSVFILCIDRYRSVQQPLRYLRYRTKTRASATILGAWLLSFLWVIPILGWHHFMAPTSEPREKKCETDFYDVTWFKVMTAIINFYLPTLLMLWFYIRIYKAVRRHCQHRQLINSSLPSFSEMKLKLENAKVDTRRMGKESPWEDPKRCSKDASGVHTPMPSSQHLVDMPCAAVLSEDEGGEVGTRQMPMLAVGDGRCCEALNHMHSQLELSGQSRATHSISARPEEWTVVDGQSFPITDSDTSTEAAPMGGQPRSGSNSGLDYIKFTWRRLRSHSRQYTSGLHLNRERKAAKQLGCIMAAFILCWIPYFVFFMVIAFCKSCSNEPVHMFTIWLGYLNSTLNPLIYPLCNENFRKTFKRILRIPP

With `COc1ccc(C2CCc3cc(OC)cc4c(CCN5CCN(c6cc(C)ccn6)CC5)c(C)n2c34)cc1` (stereo not drawn) [Example 65], in assay [1], the inhibition at 10 µM amounted to 52%. The results for the inhibition at 1 µM in assay [2] (setting [3]) and in assay [2] (setting [4]) were 21% and 48%, respectively.

For `Cc1ccnc(N2CCN(CCc3c(C)n4c5c(cc(C(=O)c6ccccc6)cc35)CCC4)CC2)c1` [Example 66], the inhibition at 10 µM in assay [1] was determined as 72%. Further, the inhibition at 1 µM in assay [2] (setting [3]) came out at 10%; in assay [2] (setting [4]), 71%.

Regarding `CC(=O)c1cc2c3c(c1)c(CCN1CCN(c4cc(C)ccn4)CC1)c(C)n3CCC2` [Example 67], the inhibition at 10 µM in assay [1] was 36%. In addition, the inhibition at 1 µM in assay [2] (setting [3]) was determined as 59%; in assay [2] (setting [4]) it was 93%.

`CCCCC1CCc2cc(O)cc3c(CCN4CCN(c5cc(C)ccn5)CC4)c(C)n1c23` (stereo not drawn) [Example 76]: in assay [1], the inhibition at 10 µM came out at 67%. The inhibition at 1 µM in assay [2] (setting [3]) amounted to 3%; in assay [2] (setting [4]), 67%.

Regarding `CNc1cc2c3c(c1)c(CCN1CCN(c4cc(C)ccn4)CC1)c(C)n3CCC2` [Example 80], in assay [1], the inhibition at 10 µM was 12%. Also, the “in vitro (H1) receptor antagonism % inhibitory effect on histamine-induced contractions of the Ileum, after 30 sec.” value in assay [2] (after 30 sec.) came to 15%. Also, the “in vitro (H1) receptor antagonism % inhibitory effect on histamine-induced contractions of the Ileum, after 10 min.” value in assay [2] (after 10 min. (after washing)) was 63%.

`Cc1ccnc(N2CCN(CCc3c(C)n4c5c(cc(C(=O)C6CCCCC6)cc35)CCC4)CC2)c1` [Example 83]: the inhibition at 10 µM in assay [1] amounted to 29%. Besides, the inhibition at 1 µM was 12% in assay [2] (setting [3]) and 52% in assay [2] (setting [4]).

In the case of `Cc1ccnc(N2CCN(CCc3c(C)n4c5c(ccc(C(O)C(C)C)c35)SCC4)CC2)c1` (stereo not drawn) [Example 90], the inhibition at 10 µM in assay [1] amounted to 56%. Moreover, the inhibition at 1 µM in assay [2] (setting [3]) stood at 19%; in assay [2] (setting [4]) it was 88%.

Take `Cc1ccnc(N2CCN(CCc3c(C)n4c5c(ccc(C(=O)C(C)C)c35)SCC4)CC2)c1` [Example 91]: the inhibition at 10 µM in assay [1] was 54%. In addition, the inhibition at 1 µM in assay [2] (setting [3]) worked out at 16%; in assay [2] (setting [4]), 83%.
